# Measurements: patent US20230407243A1, “GENETIC PLATFORM TO INVESTIGATE THE FUNCTIONS OF BACTERIAL DRUG EFFLUX PUMPS” (priority 2022, published 2023)
# Values joined by “and” are separate entries in the source; they are usually repeats but may differ in a detail not shown here. Equal entries are not always repeated. Where two headings read alike, the source gives them in different places.
# Tests used:
# Type in all cases: cell-based, Escherichia coli
# [1] = tested on: EKO-35 araC::mexCD (MexCD from P. aeruginosa); assay: MIC susceptibility profiling, efflux platform
# In short: (§1)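 MHB II broth microdilution; inoculum from 18 h LB culture, PBS-adjusted to OD600 ~1.0, then 1/2000 dilution. Compounds 2-fold titrated, duplicates, DMSO solvent control. 18 h, 37 °C, 900 rpm; background-corrected OD600 end point.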
# [2] = tested on: EKO-35 araC::acrD; assay: MIC susceptibility profiling, efflux platform
# In short: as §1
# [3] = tested on: EKO-35 araC::acrB; assay: MIC susceptibility profiling, efflux platform; details: EKO-35 araC::acrB compared to EKO-35
# In short: as §1
# [4] = tested on: EKO-35 araC::mdtBC; assay: MIC susceptibility profiling, efflux platform
# In short: as §1
# [5] = tested on: EKO-35-Pore; assay: MIC susceptibility profiling, porinated strain; details: for MIC: Escherichia coli, technical duplicate
# In short: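 E. coli strains carrying a genomically integrated constitutive fhuA ΔC/Δ4L pore were grown 18 h in LB at 37 °C, then diluted 1/2000 in MHB II from OD600 ~1.0. Compounds were tested in duplicate, 2-fold serial titration, for 18 h at 37 °C with shaking. MIC came from OD600 with the pre-incubation background subtracted.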
# [6] = tested on: EKO-35 strains producing different efflux pumps (EKO-35 araC::X); assay: Checkerboard synergy (FICI) of PAβN or NMP with antibiotics; details: for Effect / FICI: PAβN + antibiotic; for MICb Alone: antibiotic alone (PAβN checkerboard); for MICb Combined: antibiotic in combination with PAβN; for PABN MICa Alone: PAβN alone, one value per checkerboard
# Protocol: (§2) Synergy measurement using checkerboard analysis was performed in 96-well microtiter plates using the microdilution broth method, according to CLSI guidelines (Patel J. B., 2015). The cell inocula were prepared using the colony resuspension method. The minimum inhibitory concentrations (MICs) were defined as the lowest concentration that provided no growth, as determined by measurement of the OD600nm using a Synergy H1 microplate reader (BioTek). Susceptibility testing was performed in MHB II with a final volume of 100 μL. PAI3N (Bachem Americas) was solubilized in MHB II. […] Solvent controls were included in each plate.
# (§3) The Fractional Inhibitory Concentration Index (FICI) was used to assess the synergy of PAI3N in combination with different antibiotics. The FICI represents the ΣFIC of each drug. The FICI for each drug was calculated using the following formula: FICI=FICA+FICB=(CA/MICA)+(CB/MICB). Where MICA and MICB are the MICs of drugs A (PAI3N/NMP) and B (antibiotic) alone, and CA and CB are the MICs of the drugs in combination. The effects of PAβN or NMP in combination with antibiotics were classified as: synergistic (FICI<0.5), additive (FICI>0.5-1.0), indifferent (FICI>1.0-2.0), and antagonistic (FICI>2.0). Fold increases in resistance provided by efflux pumps were calculated by dividing the MIC values of strains expressing efflux pumps by the MIC value of EKO-35.
# [7] = tested on: wild-type E. coli K-12; details: K-12
# Protocol: as §2, §3
# [8] = tested on: E. coli ΔtolC; assay: microbe, parasite or virus in culture
# In short: as §1
# [9] = tested on: E. coli EKO-35; assay: microbe, parasite or virus in culture; details: for MIC: Escherichia coli, EKO35, technical duplicate
# In short: as §1
# [10] = tested on: wild-type E. coli K-12 str. BW25113; assay: microbe, parasite or virus in culture; details: Escherichia coli, BW25113, technical duplicate
# In short: as §1
compound,measurement,setting,value
CO[C@@H]1[C@@H](OC(N)=O)[C@@H](O)[C@H](Oc2ccc3c(O)c(NC(=O)c4ccc(O)c(CC=C(C)C)c4)c(=O)oc3c2C)OC1(C)C [novobiocin],Fold change of MICs,[1]; EKO-35 araC::mexCD compared to EKO-35,8 fold
same,MIC,"[1]; Table 13B, non-porinated, technical duplicate, read-out: Minimum Inhibitory Concentration, EKO-35 araC::mexCD",25 µg/mL
same,efflux pump-mediated resistance vs EKO-35,[2]; AcrD,confirmed
same,Fold change of MICs,[2]; EKO-35 araC::acrD compared to EKO-35,64 fold
same,MIC,"[2]; Escherichia coli, Table 13A, non-porinated, technical duplicate, read-out: Minimum Inhibitory Concentration, EKO-35 araC::acrD",200 µg/mL
same,Fold change of MICs,[3],128 fold
same,Fold change of MICs,[4]; EKO-35 araC::mdtBC compared to EKO-35,4 fold
same,efflux pump-mediated resistance vs EKO-35,[4]; MdtBC,conferred resistance
same,Fold changes of MICs,[5]; EKO-35-Pore compared to EKO-35-Pore (reference),1 fold
same,MIC,"[5]; Table 10, with pore, read-out: Minimum inhibitory concentration (MIC), Pore EKO-35",0.781 µg/mL
same,MIC,"[5]; Table 14A, porinated, read-out: Minimum inhibitory concentration, EKO-35-Pore",0.781 µg/mL
same,Effect,[6]; EKO-35 acrB,Synergistic
same,FICI,[6]; EKO-35 acrB,0.156
same,MICb Alone,[6]; EKO-35 acrB,1024 µg/mL
same,MICb Combined,[6]; EKO-35 acrB,32 µg/mL
same,Effect,[6]; EKO-35 acrD,Synergistic
same,FICI,[6]; EKO-35 acrD,0.313
same,MICb Alone,[6]; EKO-35 acrD,512 µg/mL
same,MICb Combined,[6]; EKO-35 acrD,32 µg/mL
same,Effect,[7]; PAβN + antibiotic,Synergistic
same,FICI,[7]; PAβN + antibiotic,0.188
same,MICb Alone,[7]; antibiotic alone (PAβN checkerboard),128 µg/mL
same,MICb Combined,[7]; antibiotic in combination with PAβN,8 µg/mL
same,MIC,"[8]; Escherichia coli, 18 h, read-out: Minimum Inhibitory Concentration, ΔtolC",0.781 µg/mL
same,"Minimum inhibitory concentration (MIC), ΔtolC","[8]; Table 10, without pore, technical duplicate",0.781 µg/mL
same,fold difference in MIC between EKO-35 and ΔtolC,"[8]; ΔtolC mutant more susceptible than EKO-35, Table 10",4 fold
same,Fold change of MICs,[9]; EKO-35 compared to EKO-35 (reference),1 fold
same,MIC,"[9]; Table 10, without pore, read-out: Minimum inhibitory concentration (MIC), EKO-35",3.12 µg/mL
same,MIC,"[9]; Table 13A, non-porinated, read-out: Minimum Inhibitory Concentration, EKO-35",3.12 µg/mL
same,MIC,"[10]; Table 10, without pore, read-out: Minimum inhibitory concentration (MIC), K-12",200 µg/mL
same,MIC,"[10]; Table 13A, non-porinated, read-out: Minimum Inhibitory Concentration, K-12",200 µg/mL
phenylalanine-arginine-β-naphthylamide [PAβN],PABN MICa Combined,"[6]; EKO35 araC::acrB, with Linezolid",16 µg/mL
same,PABN MICa Combined,"[6]; EKO-35 acrB, with Erythromycin",16 µg/mL
same,PABN MICa Combined,"[6]; EKO-35 acrB, with Fusidic Acid",32 µg/mL
same,PABN MICa Combined,"[6]; EKO-35 acrB, with Novobiocin",32 µg/mL
same,PABN MICa Combined,"[6]; EKO-35 acrB, with Oxacillin",16 µg/mL
same,PABN MICa Alone,[6]; EKO-35 acrD,64 µg/mL
same,PABN MICa Alone,"[6]; EKO-35 acrD, listed as PABN",128 µg/mL
same,PABN MICa Combined,"[6]; EKO-35 acrD, with Fusidic Acid",8 µg/mL
same,PABN MICa Combined,"[6]; EKO-35 acrD, with Novobiocin",16 µg/mL
same,PABN MICa Combined,"[6]; EKO-35 acrD, with Oxacillin",4 µg/mL
same,PABN MICa Alone,"[6]; EKO-35 acrEF, listed as PABN",32 µg/mL and 64 µg/mL
same,PABN MICa Combined,"[6]; EKO-35 acrEF, with Ciprofloxacin",16 µg/mL
same,PABN MICa Combined,"[6]; EKO-35 acrEF, with Erythromycin",16 µg/mL
same,PABN MICa Combined,"[6]; EKO-35 acrEF, with Fusidic Acid",8 µg/mL
same,PABN MICa Combined,"[6]; EKO-35 acrEF, with Oxacillin",16 µg/mL
same,PABN MICa Alone,[6]; EKO-35 mdtEF,64 µg/mL
same,PABN MICa Combined,"[6]; EKO-35 mdtEF, with Erythromycin",16 µg/mL
same,PABN MICa Combined,"[6]; EKO-35 mdtEF, with Fusidic Acid",8 µg/mL
same,PABN MICa Alone,[6]; EKO-35 mexCD,64 µg/mL
same,PABN MICa Combined,"[6]; EKO-35 mexCD, with Ciprofloxacin",8 µg/mL
same,PABN MICa Combined,"[6]; EKO-35 mexCD, with Erythromycin",8 µg/mL
same,PABN MICa Alone,"[7]; PAβN alone, one value per checkerboard",256 µg/mL
same,PABN MICa Combined,[7]; with Ciprofloxacin,64 µg/mL
same,PABN MICa Combined,[7]; with Erythromycin,16 µg/mL
same,PABN MICa Combined,[7]; with Fusidic Acid,32 µg/mL
same,PABN MICa Combined,[7]; with Linezolid,16 µg/mL
same,PABN MICa Combined,[7]; with Novobiocin,32 µg/mL
same,PABN MICa Combined,[7]; with Oxacillin,32 µg/mL
